Laboratory results as given in ChEMBL document CHEMBL4316588, “Design, Synthesis, and Biological Evaluation of Novel DNA Gyrase-Inhibiting Spiropyrimidinetriones as Potent Antibiotics for Treatment of Infections Caused by Multidrug-Resistant Gram-Positive Bacteria” (J Med Chem, 2019).
Values after ≈ are worked out from the molar mass of the structure shown. Active and inactive are the calls of the source. No cut-off for these calls is given here.

How the values were obtained:
Format in all cases: functional
Staphylococcus aureus [1] = assay: Antibacterial activity against methicillin-sensitive Staphylococcus aureus after 18 to 20 hrs by CLSI-protocol based broth microdilution method
Streptococcus pneumoniae = assay: Antibacterial activity against penicillin-resistant Streptococcus pneumoniae after 18 to 20 hrs by CLSI-protocol based broth microdilution method
Streptococcus pyogenes = assay: Antibacterial activity against Streptococcus pyogenes after 18 to 20 hrs by CLSI-protocol based broth microdilution method
Staphylococcus aureus [2] = assay: Antibacterial activity against methicillin-resistant Staphylococcus aureus after 18 to 20 hrs by CLSI-protocol based broth microdilution method
[3] = tested on: Staphylococcus epidermidis; assay: Antibacterial activity against methicillin-resistant Staphylococcus epidermidis after 18 to 20 hrs by CLSI-protocol based broth microdilution method
[4] = tested on: Staphylococcus epidermidis; assay: Antibacterial activity against methicillin-sensitive Staphylococcus epidermidis after 18 to 20 hrs by CLSI-protocol based broth microdilution method
[5] = Staphylococcus aureus, read-out: MIC
[6] = Streptococcus pyogenes, read-out: MIC

C[C@@H]1CN2c3c(cc4c(N5C[C@H](CS(C)(=O)=O)SC5=O)noc4c3F)CC3(C(=O)NC(=O)NC3=O)[C@H]2[C@H](C)O1 showed an MIC (Staphylococcus aureus [1]; [5]) of 2 to 4 µg/mL (≈ 3.44 to 6.88 µM), an MIC (Streptococcus pneumoniae) of 0.5 to 4 µg/mL (≈ 0.86 to 6.88 µM) and an MIC (Streptococcus pyogenes; [6]) of 0.5 to 1 µg/mL (≈ 0.86 to 1.72 µM). For the same compound, the MIC (Staphylococcus aureus [2]) was 1 to 8 µg/mL (≈ 1.72 to 13.8 µM), the MIC [3] was 0.25 to 1 µg/mL (≈ 0.43 to 1.72 µM) and the MIC [4] was 0.25 to 1 µg/mL (≈ 0.43 to 1.72 µM).

For CC[C@H]1CSC(=O)N1c1noc2c(F)c3c(cc12)CC1(C(=O)NC(=O)NC1=O)[C@H]1[C@H](C)O[C@H](C)CN31, the MIC (Staphylococcus aureus [1]; [5]) was 0.25 to 0.5 µg/mL (≈ 0.483 to 0.966 µM), the MIC (Streptococcus pneumoniae) was 0.5 to 1 µg/mL (≈ 0.966 to 1.93 µM) and the MIC (Streptococcus pyogenes; [6]) was 0.5 to 1 µg/mL (≈ 0.966 to 1.93 µM). For the same compound, the MIC (Staphylococcus aureus [2]) was 0.5 to 1 µg/mL (≈ 0.966 to 1.93 µM), the MIC [3] was 0.25 to 0.5 µg/mL (≈ 0.483 to 0.966 µM) and the MIC [4] was 0.5 to 1 µg/mL (≈ 0.966 to 1.93 µM).

In the case of CC[C@@H]1CSC(=O)N1c1noc2c(F)c3c(cc12)CC1(C(=O)NC(=O)NC1=O)[C@H]1[C@H](C)O[C@H](C)CN31, the MIC (Staphylococcus aureus [1]; [5]) is reported as 0.5 to 1 µg/mL (≈ 0.966 to 1.93 µM), the MIC (Streptococcus pneumoniae) is reported as 2 µg/mL (≈ 3.86 µM) and the MIC (Streptococcus pyogenes; [6]) is reported as 4 µg/mL (≈ 7.73 µM). It also gave an MIC (Staphylococcus aureus [2]) of 0.5 to 2 µg/mL (≈ 0.966 to 3.86 µM), an MIC [3] of 0.25 to 2 µg/mL (≈ 0.483 to 3.86 µM) and an MIC [4] of 1 µg/mL (≈ 1.93 µM).

With C[C@@H]1CN2c3c(cc4c(N5C(=O)S[C@H]6CCC[C@H]65)noc4c3F)CC3(C(=O)NC(=O)NC3=O)[C@H]2[C@H](C)O1 the MIC (Staphylococcus aureus [1]; [5]) was 0.25 to 0.5 µg/mL (≈ 0.472 to 0.944 µM), the MIC (Streptococcus pneumoniae) was 0.25 to 0.5 µg/mL (≈ 0.472 to 0.944 µM) and the MIC (Streptococcus pyogenes; [6]) was 0.125 µg/mL (≈ 0.236 µM). The MIC (Staphylococcus aureus [2]) was 0.25 to 1 µg/mL (≈ 0.472 to 1.89 µM), the MIC [3] was 0.5 µg/mL (≈ 0.944 µM) and the MIC [4] was 0.5 µg/mL (≈ 0.944 µM).

In the case of C[C@@H]1CN2c3c(cc4c(N5CCOC5=S)noc4c3F)CC3(C(=O)NC(=O)NC3=O)[C@H]2[C@H](C)O1 (racemic), the MIC (Staphylococcus aureus [1]; [5]) is reported as 0.5 to 1 µg/mL (≈ 1.02 to 2.04 µM), the MIC (Streptococcus pneumoniae) is reported as 1 to 2 µg/mL (≈ 2.04 to 4.09 µM) and the MIC (Streptococcus pyogenes; [6]) is reported as 2 µg/mL (≈ 4.09 µM). For the same compound, the MIC (Staphylococcus aureus [2]) was 1 to 2 µg/mL (≈ 2.04 to 4.09 µM), the MIC [3] was 1 µg/mL (≈ 2.04 µM) and the MIC [4] was 0.5 to 2 µg/mL (≈ 1.02 to 4.09 µM).

With C[C@@H]1CN2c3c(cc4c(N5CCOCC5)ncnc4c3F)CC3(C(=O)NC(=O)NC3=O)[C@H]2[C@H](C)O1 (racemic) the MIC (Staphylococcus aureus [1]) was “inactive”, the MIC (Streptococcus pneumoniae) was “inactive” and the MIC (Streptococcus pyogenes) was “inactive”. For the same compound, the MIC (Staphylococcus aureus [2]) was “inactive”, the MIC [3] was “inactive” and the MIC [4] was “inactive”.

With C[C@@H]1CN2c3c(cc4c(N5C(=O)OC[C@@H]5C)noc4c3F)CC3(C(=O)NS(=O)(=O)NC3=O)[C@H]2[C@H](C)O1 the MIC (Staphylococcus aureus [1]) was “inactive”, the MIC (Streptococcus pneumoniae) was “inactive” and the MIC (Streptococcus pyogenes) was “inactive”. For the same compound, the MIC (Staphylococcus aureus [2]) was “inactive”, the MIC [3] was “inactive” and the MIC [4] was “inactive”.

With C[C@@H]1CN2c3c(cc4c(N5C(=O)OCC5(C)C)noc4c3F)CC3(C(=O)NC(=O)NC3=O)[C@H]2[C@H](C)O1 (racemic) the MIC (Staphylococcus aureus [1]; [5]) was 16 µg/mL (≈ 31.9 µM), the MIC (Streptococcus pneumoniae) was 16 µg/mL (≈ 31.9 µM) and the MIC (Streptococcus pyogenes; [6]) was 16 µg/mL (≈ 31.9 µM). It also gave an MIC (Staphylococcus aureus [2]) of 16 µg/mL (≈ 31.9 µM), an MIC [3] of 16 µg/mL (≈ 31.9 µM) and an MIC [4] of 16 µg/mL (≈ 31.9 µM).

Compound C[C@@H]1CN2c3c(cc4c(N5C[C@H](CN=[N+]=[N-])SC5=O)noc4c3F)CC3(C(=O)NC(=O)NC3=O)[C@H]2[C@H](C)O1 has an MIC (Staphylococcus aureus [1]; [5]) of 0.06 to 0.25 µg/mL (≈ 0.11 to 0.459 µM), an MIC (Streptococcus pneumoniae) of 0.125 µg/mL (≈ 0.23 µM) and an MIC (Streptococcus pyogenes; [6]) of 0.125 to 1 µg/mL (≈ 0.23 to 1.84 µM). It also gave an MIC (Staphylococcus aureus [2]) of 0.25 to 0.5 µg/mL (≈ 0.459 to 0.918 µM), an MIC [3] of 0.03 to 0.125 µg/mL (≈ 0.0551 to 0.23 µM) and an MIC [4] of 0.03 to 0.25 µg/mL (≈ 0.0551 to 0.459 µM).

With C[C@@H]1CN2c3c(cc4c(N5C(=O)OC[C@@H]5C)noc4c3C#N)CC3(C(=O)NC(=O)NC3=O)[C@H]2[C@H](C)O1 the MIC (Staphylococcus aureus [1]; [5]) was 4 to 8 µg/mL (≈ 8.09 to 16.2 µM), the MIC (Streptococcus pneumoniae) was 2 to 8 µg/mL (≈ 4.04 to 16.2 µM) and the MIC (Streptococcus pyogenes; [6]) was 4 to 8 µg/mL (≈ 8.09 to 16.2 µM). It also gave an MIC (Staphylococcus aureus [2]) of 1 to 32 µg/mL (≈ 2.02 to 64.7 µM), an MIC [3] of 1 to 2 µg/mL (≈ 2.02 to 4.04 µM) and an MIC [4] of 0.5 to 2 µg/mL (≈ 1.01 to 4.04 µM).
